Consider ten molecules from patent US20230148005A1, “MACROCYCLIC COMPOUNDS AND USES THEREOF” (THESEUS PHARMACEUTICALS, INC., priority 2020, published 2023).

A value given as a limit tells only on which side of the number the result lay.

One assay deals with Ba/F3 Parental. Description: Ba/F3 viability assay (CellTiter-Glo), parental. In kind it is cell-based. The following applies: Mus musculus, BaF3, anti-proliferation. From the text:
(§1) Inhibition of cell proliferation can be studied using Ba/F3 viability assays, including the Promega CellTiter-Glo cell viability assay. This assay can be used to study the effect of compounds described herein in the following assays: (1) Ba/F3 Parental; (2) Ba/F3 EGFR-Del19/T790M; (3); Ba/F3 EGFR-Del19/C797S; and (4) Ba/F3 EGFR-Del19/T790M/C797S.
Background: ATP-based viability assays read luminescence as a measure of living cells.

The next assay has as its target EGFR^L858R (Homo sapiens, UniProt P00533, L858R). Description: in vitro kinase assay (HTRF KinEASE-TK kit), L. The following applies: kinase inhibition. In kind it is biochemical. An excerpt: (§2) Assays using an in vitro kinase assay kit (HTRF KinEASE-TK kit) can be used to study the inhibitory activity of compounds described herein with respect to EGFR mutants such as EGFR^L858R, EGFR^L58R/T790M, and EGFR^L858R/T790M/C^797S.

In assay [1] the target is Ba/F3 EGFR-Del19/T790M/C797S (Homo sapiens, UniProt P00533, T790M/C797S, cells depend on it, form not given). Description: Ba/F3 viability assay (CellTiter-Glo), DTC. In kind it is cell-based. The following applies: anti-proliferation, read-out: BaF3 DTC IC50.
Description: as §1

The target of a further assay is EGFR^L858R/T790M/C^797S (Homo sapiens, UniProt P00533, C797S/L858R/T790M). The experiment in a line: in vitro kinase assay (HTRF KinEASE-TK kit), LTC. The note with it: kinase inhibition. In kind it is biochemical.
Description: as §2

Another assay concerns the target Ba/F3 EGFR-Del19/T790M (Homo sapiens, UniProt P00533, T790M, cells depend on it, form not given). Description: Ba/F3 viability assay (CellTiter-Glo), DT. The format is cell-based. The note with it: anti-proliferation, read-out: BaF3 DT IC50.
Description: as §1

A further assay deals with EGFR^L58R/T790M (Homo sapiens, UniProt P00533, L858R/T790M). The experiment in a line: in vitro kinase assay (HTRF KinEASE-TK kit), LT. The format is biochemical. The following applies: kinase inhibition.
Description: as §2

For another assay, the target named is Ba/F3 EGFR-Del19/C797S (Homo sapiens, UniProt P00533, C797S, cells depend on it, form not given). Description: Ba/F3 viability assay (CellTiter-Glo), DC. In kind it is cell-based. The note with it: anti-proliferation, read-out: BaF3 DC IC50.
Description: as §1

EGFR^L858R/T790M/C^797S, sequence (P00533 25-1210 T790M/C797S/L858R): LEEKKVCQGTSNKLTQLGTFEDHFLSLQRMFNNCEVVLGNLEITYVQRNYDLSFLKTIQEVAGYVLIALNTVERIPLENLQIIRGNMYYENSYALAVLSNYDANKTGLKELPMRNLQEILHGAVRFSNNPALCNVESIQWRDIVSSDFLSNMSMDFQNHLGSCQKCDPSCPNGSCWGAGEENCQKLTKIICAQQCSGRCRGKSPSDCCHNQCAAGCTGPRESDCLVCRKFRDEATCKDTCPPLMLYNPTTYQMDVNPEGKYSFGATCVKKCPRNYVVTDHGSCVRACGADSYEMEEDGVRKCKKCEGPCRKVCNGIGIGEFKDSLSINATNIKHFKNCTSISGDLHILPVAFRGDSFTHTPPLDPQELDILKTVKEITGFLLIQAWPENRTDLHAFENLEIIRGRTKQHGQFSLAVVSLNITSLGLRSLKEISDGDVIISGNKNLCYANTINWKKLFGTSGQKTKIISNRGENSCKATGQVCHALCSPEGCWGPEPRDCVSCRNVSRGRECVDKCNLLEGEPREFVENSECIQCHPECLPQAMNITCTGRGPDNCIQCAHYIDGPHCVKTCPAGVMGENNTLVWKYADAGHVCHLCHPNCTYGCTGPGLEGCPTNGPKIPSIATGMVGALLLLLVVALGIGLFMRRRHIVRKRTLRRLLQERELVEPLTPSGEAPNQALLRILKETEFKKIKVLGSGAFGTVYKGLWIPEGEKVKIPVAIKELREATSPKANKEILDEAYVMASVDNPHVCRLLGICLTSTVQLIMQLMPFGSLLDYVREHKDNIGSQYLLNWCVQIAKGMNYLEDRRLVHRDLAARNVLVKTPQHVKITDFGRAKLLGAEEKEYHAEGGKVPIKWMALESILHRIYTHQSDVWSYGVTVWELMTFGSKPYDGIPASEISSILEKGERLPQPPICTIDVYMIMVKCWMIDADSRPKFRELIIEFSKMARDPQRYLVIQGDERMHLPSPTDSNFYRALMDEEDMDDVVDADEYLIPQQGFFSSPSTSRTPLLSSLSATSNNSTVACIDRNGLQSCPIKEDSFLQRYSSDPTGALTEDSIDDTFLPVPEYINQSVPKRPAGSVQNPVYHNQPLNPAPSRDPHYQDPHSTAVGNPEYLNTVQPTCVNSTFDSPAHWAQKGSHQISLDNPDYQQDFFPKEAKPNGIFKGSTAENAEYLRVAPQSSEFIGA
Ba/F3 EGFR-Del19/T790M, sequence (P00533 with tags, fused parts or gaps DEL746-750/T790M, form open): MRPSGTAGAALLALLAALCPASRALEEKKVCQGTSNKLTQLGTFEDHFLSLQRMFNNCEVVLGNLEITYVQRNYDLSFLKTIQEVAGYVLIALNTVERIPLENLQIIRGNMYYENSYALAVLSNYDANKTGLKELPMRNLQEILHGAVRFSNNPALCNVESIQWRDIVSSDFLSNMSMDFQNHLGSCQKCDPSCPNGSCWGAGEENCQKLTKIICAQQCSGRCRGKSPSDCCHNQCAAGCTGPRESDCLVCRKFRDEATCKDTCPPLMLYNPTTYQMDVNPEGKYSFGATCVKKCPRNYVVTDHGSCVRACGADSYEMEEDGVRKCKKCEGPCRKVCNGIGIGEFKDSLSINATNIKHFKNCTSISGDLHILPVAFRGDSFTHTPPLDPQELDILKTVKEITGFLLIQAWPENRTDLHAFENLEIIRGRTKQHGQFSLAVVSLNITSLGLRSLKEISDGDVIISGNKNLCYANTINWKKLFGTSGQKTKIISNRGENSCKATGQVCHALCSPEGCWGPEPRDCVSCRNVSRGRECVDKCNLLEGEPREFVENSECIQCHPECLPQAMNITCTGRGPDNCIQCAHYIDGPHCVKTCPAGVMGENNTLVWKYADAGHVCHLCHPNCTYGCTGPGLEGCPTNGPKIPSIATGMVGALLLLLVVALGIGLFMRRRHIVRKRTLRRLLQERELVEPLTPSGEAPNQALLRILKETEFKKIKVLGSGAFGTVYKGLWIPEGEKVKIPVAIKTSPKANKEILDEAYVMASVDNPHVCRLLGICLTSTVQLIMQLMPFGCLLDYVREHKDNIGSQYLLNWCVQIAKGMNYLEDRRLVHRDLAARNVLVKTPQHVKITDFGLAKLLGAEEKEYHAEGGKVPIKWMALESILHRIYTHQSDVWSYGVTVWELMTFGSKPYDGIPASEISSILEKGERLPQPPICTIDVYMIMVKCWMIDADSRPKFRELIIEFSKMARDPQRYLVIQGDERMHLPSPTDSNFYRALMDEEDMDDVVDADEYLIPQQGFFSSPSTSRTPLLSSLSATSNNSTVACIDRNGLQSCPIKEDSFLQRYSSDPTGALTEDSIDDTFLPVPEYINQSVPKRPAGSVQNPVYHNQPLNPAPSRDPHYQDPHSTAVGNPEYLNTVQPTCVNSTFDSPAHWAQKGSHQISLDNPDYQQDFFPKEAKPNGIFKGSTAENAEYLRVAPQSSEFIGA
EGFR^L858R, sequence (P00533 25-1210 L858R): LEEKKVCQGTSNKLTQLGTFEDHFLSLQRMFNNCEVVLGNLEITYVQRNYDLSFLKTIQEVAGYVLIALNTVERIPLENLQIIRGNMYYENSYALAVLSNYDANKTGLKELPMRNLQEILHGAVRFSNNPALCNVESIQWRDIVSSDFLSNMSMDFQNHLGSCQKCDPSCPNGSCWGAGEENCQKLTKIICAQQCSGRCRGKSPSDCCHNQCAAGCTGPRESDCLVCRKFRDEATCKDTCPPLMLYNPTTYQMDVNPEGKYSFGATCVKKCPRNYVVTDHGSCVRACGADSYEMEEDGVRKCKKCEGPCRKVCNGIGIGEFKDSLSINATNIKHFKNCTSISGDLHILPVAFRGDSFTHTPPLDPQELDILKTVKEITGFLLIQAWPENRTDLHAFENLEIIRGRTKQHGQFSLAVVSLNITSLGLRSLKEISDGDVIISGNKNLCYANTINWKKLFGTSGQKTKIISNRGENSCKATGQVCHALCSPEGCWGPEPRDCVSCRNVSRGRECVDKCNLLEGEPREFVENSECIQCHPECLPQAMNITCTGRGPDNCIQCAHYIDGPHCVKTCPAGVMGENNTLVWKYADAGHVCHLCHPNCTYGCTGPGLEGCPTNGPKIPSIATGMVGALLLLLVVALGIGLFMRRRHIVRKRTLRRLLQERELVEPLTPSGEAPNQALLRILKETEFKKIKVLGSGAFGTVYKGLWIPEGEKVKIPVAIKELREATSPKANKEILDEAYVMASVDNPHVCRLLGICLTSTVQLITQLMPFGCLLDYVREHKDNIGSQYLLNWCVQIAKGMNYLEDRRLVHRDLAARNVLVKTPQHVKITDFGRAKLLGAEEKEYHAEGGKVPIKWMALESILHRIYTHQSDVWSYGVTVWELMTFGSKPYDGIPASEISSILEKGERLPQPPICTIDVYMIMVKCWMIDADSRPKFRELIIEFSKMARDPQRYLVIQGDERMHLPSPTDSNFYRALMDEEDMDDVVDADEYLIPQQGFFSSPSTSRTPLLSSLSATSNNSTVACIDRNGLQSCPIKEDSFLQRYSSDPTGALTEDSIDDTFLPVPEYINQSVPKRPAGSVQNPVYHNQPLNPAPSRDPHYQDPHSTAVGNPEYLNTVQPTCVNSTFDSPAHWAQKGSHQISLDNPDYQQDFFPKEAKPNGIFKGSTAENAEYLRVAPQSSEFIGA
Ba/F3 EGFR-Del19/C797S, sequence (P00533 with tags, fused parts or gaps DEL746-750/C797S, form open): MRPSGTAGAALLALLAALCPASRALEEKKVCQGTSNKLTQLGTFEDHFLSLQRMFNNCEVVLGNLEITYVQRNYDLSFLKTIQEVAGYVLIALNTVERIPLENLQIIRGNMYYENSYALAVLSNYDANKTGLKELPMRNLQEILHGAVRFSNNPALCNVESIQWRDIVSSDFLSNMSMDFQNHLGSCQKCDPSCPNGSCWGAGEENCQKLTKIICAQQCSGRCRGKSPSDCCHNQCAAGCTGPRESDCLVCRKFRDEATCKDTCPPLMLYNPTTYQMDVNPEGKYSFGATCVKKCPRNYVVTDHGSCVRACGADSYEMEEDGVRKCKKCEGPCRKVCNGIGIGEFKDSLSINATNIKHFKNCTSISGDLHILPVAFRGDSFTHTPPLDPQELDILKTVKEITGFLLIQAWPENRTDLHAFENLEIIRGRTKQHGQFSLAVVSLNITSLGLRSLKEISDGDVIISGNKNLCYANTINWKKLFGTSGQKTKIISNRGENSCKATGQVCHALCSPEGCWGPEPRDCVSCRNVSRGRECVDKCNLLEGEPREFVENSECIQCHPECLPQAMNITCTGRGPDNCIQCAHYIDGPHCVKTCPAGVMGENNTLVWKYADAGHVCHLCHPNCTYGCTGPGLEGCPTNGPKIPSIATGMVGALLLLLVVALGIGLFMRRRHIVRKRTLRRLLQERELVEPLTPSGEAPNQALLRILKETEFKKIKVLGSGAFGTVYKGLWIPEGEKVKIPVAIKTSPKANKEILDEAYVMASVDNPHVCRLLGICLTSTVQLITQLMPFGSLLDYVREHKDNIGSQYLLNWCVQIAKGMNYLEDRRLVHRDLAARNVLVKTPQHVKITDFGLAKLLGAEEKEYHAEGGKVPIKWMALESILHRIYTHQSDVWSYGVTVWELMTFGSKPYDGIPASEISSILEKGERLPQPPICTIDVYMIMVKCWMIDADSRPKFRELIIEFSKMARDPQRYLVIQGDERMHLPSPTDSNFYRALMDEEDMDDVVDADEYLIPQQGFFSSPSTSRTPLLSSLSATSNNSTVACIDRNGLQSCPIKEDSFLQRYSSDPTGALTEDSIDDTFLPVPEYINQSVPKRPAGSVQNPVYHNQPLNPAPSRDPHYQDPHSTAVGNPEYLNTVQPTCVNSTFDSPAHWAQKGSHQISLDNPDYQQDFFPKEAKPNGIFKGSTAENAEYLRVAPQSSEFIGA

Regarding `CC(C)N1CCN(CC2CCN(c3nn4c5cc(ncc35)Nc3ccnc(n3)-c3cnn(C)c3OCC[C@@H]4C)C2)CC1` (stereo partly shown) [(93)], the IC50 (in general, the point on the concentration scale where inhibition reaches its midpoint) with Ba/F3 Parental was 10 to 100 nM; against EGFR^L858R, below 10 nM; at EGFR^L858R/T790M/C^797S it was below 10 nM; against EGFR^L58R/T790M, below 10 nM. The GI50 (in assay [1]; on Ba/F3 EGFR-Del19/T790M; at Ba/F3 EGFR-Del19/C797S) was below 10 nM each time.
Consider `Cc1cc(-c2nn3c4cc(ncc24)Nc2ccnc(n2)-c2cnn(C)c2OCC[C@@H]3C)oc1CN(C)C` [(168)], for which the IC50 in the assay with Ba/F3 Parental is 100 to 1000 nM; against EGFR^L858R, below 10 nM; on EGFR^L858R/T790M/C^797S, below 10 nM; against EGFR^L58R/T790M, below 10 nM. The GI50 (in assay [1]; at Ba/F3 EGFR-Del19/T790M; at Ba/F3 EGFR-Del19/C797S) was below 10 nM throughout.
For `CC(C)N1CCN(Cc2csc(-c3nn4c5cc(ncc35)Nc3ccnc(n3)-c3cnn(C)c3OCC[C@@H]4C)n2)CC1` [(118)], the IC50 is at least 1000 nM in the assay on Ba/F3 Parental, 10 to 100 nM on EGFR^L858R, below 10 nM against EGFR^L858R/T790M/C^797S and below 10 nM at EGFR^L58R/T790M. Moreover, the values for the GI50 (in assay [1]; at Ba/F3 EGFR-Del19/T790M; at Ba/F3 EGFR-Del19/C797S) were 10 to 100 nM, 100 to 1000 nM and 100 to 1000 nM, respectively.
In the case of `C[C@H]1CCOc2c(cnn2C)-c2nccc(n2)Nc2cc3c(cn2)c(-c2cccc(CN4CCOCC4)c2)nn31` [(177)], the IC50 with Ba/F3 Parental was 100 to 1000 nM; against EGFR^L858R, 10 to 100 nM; on EGFR^L858R/T790M/C^797S, below 10 nM; against EGFR^L58R/T790M, below 10 nM. Moreover, the GI50 in assay [1] was below 10 nM; at Ba/F3 EGFR-Del19/T790M, 10 to 100 nM; on Ba/F3 EGFR-Del19/C797S, 10 to 100 nM.
Consider `C[C@H]1CCOc2c(cnn2C)-c2nccc(n2)Nc2cc3c(cn2)c(-c2ccc(CN4CCNCC4)n2C)nn31` [(119)], for which the IC50 was 100 to 1000 nM in the assay with Ba/F3 Parental, below 10 nM against EGFR^L858R, below 10 nM against EGFR^L858R/T790M/C^797S and below 10 nM against EGFR^L58R/T790M. Moreover, the GI50 (in assay [1]; on Ba/F3 EGFR-Del19/T790M; at Ba/F3 EGFR-Del19/C797S) was below 10 nM in each case.
As to `CC1CCCCOc2c(cnn2C)-c2nccc(n2)Nc2cc3c(cn2)c(N2CCC2)nn31` (stereo not shown) [(58)], the IC50 was at least 1000 nM with Ba/F3 Parental, 10 to 100 nM against EGFR^L858R, below 10 nM on EGFR^L858R/T790M/C^797S and below 10 nM at EGFR^L58R/T790M. Also, the GI50 (in assay [1]; on Ba/F3 EGFR-Del19/T790M; at Ba/F3 EGFR-Del19/C797S) was 10 to 100 nM in each case.
Regarding `C[C@H]1CCOc2c(cnn2C)-c2nccc(n2)Nc2cc3c(cn2)c(-c2cccc(CCN4CCOCC4)c2)nn31` [(163)], the IC50 is 100 to 1000 nM with Ba/F3 Parental, below 10 nM on EGFR^L858R, below 10 nM at EGFR^L858R/T790M/C^797S and below 10 nM at EGFR^L58R/T790M. For the same molecule, the GI50 in assay [1] is below 10 nM; at Ba/F3 EGFR-Del19/T790M, 10 to 100 nM; on Ba/F3 EGFR-Del19/C797S it was 10 to 100 nM.
Take `CCn1c(CN(C)C)ccc1-c1nn2c3cc(ncc13)Nc1ccnc(n1)-c1cnn(C)c1OCC[C@@H]2C` [(191)]: the IC50 with Ba/F3 Parental is 100 to 1000 nM; against EGFR^L858R it was below 10 nM; at EGFR^L858R/T790M/C^797S, below 10 nM; against EGFR^L58R/T790M it was below 10 nM. For the same molecule, the GI50 in assay [1] is below 10 nM; at Ba/F3 EGFR-Del19/T790M, 10 to 100 nM; at Ba/F3 EGFR-Del19/C797S, below 10 nM.
For the molecule `C[C@H]1CCOc2c(cnn2C)-c2nccc(n2)Nc2cc3c(cn2)c(-c2ncc(CN4CCOCC4)s2)nn31` [(143)], the IC50 in the assay on Ba/F3 Parental is at least 1000 nM; against EGFR^L858R it was 10 to 100 nM; against EGFR^L858R/T790M/C^797S it was below 10 nM; at EGFR^L58R/T790M it was below 10 nM. The GI50 (in assay [1]; at Ba/F3 EGFR-Del19/T790M; on Ba/F3 EGFR-Del19/C797S) was 10 to 100 nM in each case.
`CCCn1cc(-c2nn3c4cc(ncc24)Nc2ccnc(n2)-c2cnn(C)c2OCC[C@@H]3C)cc1CN1CCOCC1` [(152)]: the IC50 was 100 to 1000 nM in the assay on Ba/F3 Parental, below 10 nM against EGFR^L858R, below 10 nM against EGFR^L858R/T790M/C^797S and below 10 nM on EGFR^L58R/T790M. Also, the GI50 (in assay [1]; at Ba/F3 EGFR-Del19/T790M; on Ba/F3 EGFR-Del19/C797S) was below 10 nM throughout.
